Measurements published in patent publication US20250127709A1, “COSMETIC COMPOSITION CONTAINING IRIS GERMANICA ROOT-DERIVED EXOSOMES AS AN ACTIVE INGREDIENT” (PP PRODUITS PRESTIGES SA, priority 2021, published 2025).

What was measured:
Type in all cases: cell-based, human
[1] = tested on: MMP-1; test: Wrinkle improvement efficacy: MMP-1 mRNA expression in UVB-irradiated HDFa; conditions: UVB 20 mJ/cm^2, treated with 50 μM, positive control
Procedure: In order to confirm an anti-aging efficacy of the Iris germanica rhizome-derived exosomes, they were evaluated for their effect on MMP-1 expression by comparing them with the Iris germanica rhizome extracts for each solvent. After inoculating a human dermal fibroblast (HDFa), they were cultured in a culture medium of Fibroblast Basal Medium (Medium 106) containing 100 IU/mL of penicillin and 100 μg/mL of streptomycin under 5% CO2 at 37° C. for 24 hours. After the culture, the medium was discarded, and the Iris germanica rhizome-derived exosomes (stock concentration 9.90×10^9 particles/mL) and the Iris germanica rhizome extracts for each solvent (stock concentration 100 mg/mL) were treated at each concentration and cultured for 48 hours. In order to induce cell damage, the remaining cultured cell groups except for the non-UVB irradiation group were removed from the medium, and then the medium was irradiated with 20 mJ/cm^2 of UVB and replaced with a new medium, which was then cultured for 24 hours. After 24 hours, RNA was extracted from the cultured cells using a TransZol reagent, followed by performing RT-PCR (real-time genetic polymerase chain reaction) to measure an amount of mRNA change in MMP-1, which is related to skin aging and wrinkle formation. A product generated by the PCR was identified with a Gel Documentation system by performing electrophoresis on a 1% agarose gel. […]

[2] = tested on: COL1A1; test: Wrinkle improvement efficacy: COL1A1 mRNA expression in HDFa; conditions: treated with 50 μM, positive control
Procedure: In order to confirm an anti-aging efficacy of the Iris germanica rhizome-derived exosomes, they were evaluated for their effect on COL1A1 expression by comparing them with the Iris germanica rhizome extracts for each solvent. After inoculating a human dermal fibroblast (HDFa), they were cultured in a culture medium of Fibroblast Basal Medium (Medium 106) containing 100 IU/mL of penicillin and 100 μg/mL of streptomycin under 5% CO2 at 37° C. for 24 hours. After culturing, the medium was discarded, and the Iris germanica rhizome-derived exosomes (stock concentration 9.90×10^9 particles/mL) and the Iris germanica rhizome extracts for each solvent (stock concentration 100 mg/mL) were treated at each concentration and cultured for 48 hours. After culturing, RNA was extracted from the cultured cells using a TransZol reagent, followed by performing RT-PCR (real-time genetic polymerase chain reaction) to measure an amount of mRNA change in collagen, which maintains a skin connective tissue. A product generated by the PCR was identified with a Gel Documentation system by performing electrophoresis on a 1% agarose gel. In this case, a negative control group was treated with PBS, and a positive control group was treated with 50 μM of retinyl palmitate. […]

[3] = tested on: AQP3 (Aquaporin 3); test: Moisturizing efficacy: AQP3 mRNA expression by RT-PCR in HEKa; conditions: treated with 0.01%, positive control
Procedure: In order to confirm a moisturizing efficacy of the Iris germanica rhizome-derived exosomes, they were evaluated for their effect on AQP3 expression by comparing them with the Iris germanica rhizome extracts for each solvent. After inoculating a human epidermal keratinocyte (HEKa), they were cultured in a culture medium of Dulbecco Modified Eagle Medium (DMEM) supplemented with 100 IU/mL of penicillin and 100 μg/mL of streptomycin under 5% CO2 at 37° C. for 24 hours. After the culture, the medium was discarded, and the iris germanica rhizome-derived exosomes (stock concentration 9.90×10^9 particles/mL) and the iris germanica rhizome extracts for each solvent (stock concentration 100 mg/mL) were treated at each concentration and cultured for 48 hours. Thereafter, RNA was extracted from the cultured cells using a TransZol reagent, followed by performing RT-PCR (real-time genetic polymerase chain reaction) to measure an amount of mRNA change in AQP3 (Aquaporin 3), which is a moisturizing factor involved in moisture movement in the cells and is a protein that plays an important role in skin moisturization. A product generated by the PCR was identified with a Gel Documentation system by performing electrophoresis on a 1% agarose gel. In this case, a negative control group was treated with PBS, and a positive control group was treated with 0.01% of a hyaluronic acid. […]

Molecule	MMP-1 expression rate [1] [%]	COL1A1 expression rate [2] [%]	AQP3 expression rate [3] [%]
CCCCCCCCCCCCCCCC(=O)OC/C=C(C)/C=C/C=C(C)/C=C/C1=C(C)CCCC1(C)C [retinyl palmitate]	72.81	173.93	–
hyaluronic acid	–	–	155.69
